According to the NIST ThermoML archive (doi:10.1016/j.fluid.2015.03.016):
Values joined by “and” are separate entries in the source; they are usually repeats but may differ in a detail not shown here. Equal entries are not always repeated.

Settings: Liquid, Vibrating wire viscometry

CCCCOC(=O)CCCCC(=O)OCCCC [dibutyl hexanedioate]
Settings	viscosity
333.15 K, 5090 kPa	2.366 mPa·s
333.15 K, 5100 kPa	2.361 mPa·s and 2.362 mPa·s
333.15 K, 5210 kPa	2.361 mPa·s and 2.365 mPa·s
333.15 K, 5220 kPa	2.366 mPa·s
333.15 K, 7790 kPa	2.42 mPa·s and 2.421 mPa·s
333.15 K, 7800 kPa	2.421 mPa·s
333.15 K, 10100 kPa	2.493 mPa·s
333.15 K, 10120 kPa	2.495 mPa·s
333.15 K, 10130 kPa	2.495 mPa·s
333.15 K, 10160 kPa	2.493 mPa·s
333.15 K, 14860 kPa	2.621 mPa·s
333.15 K, 15150 kPa	2.62 mPa·s
333.15 K, 15240 kPa	2.619 mPa·s
333.15 K, 15260 kPa	2.625 mPa·s
333.15 K, 20250 kPa	2.763 mPa·s
333.15 K, 20260 kPa	2.76 mPa·s
333.15 K, 20270 kPa	2.761 mPa·s
333.15 K, 20290 kPa	2.76 mPa·s
333.15 K, 29840 kPa	3.05 mPa·s
333.15 K, 29880 kPa	3.043 mPa·s
333.15 K, 30130 kPa	3.05 mPa·s
333.15 K, 30150 kPa	3.042 mPa·s
333.15 K, 30230 kPa	3.047 mPa·s
333.15 K, 39970 kPa	3.331 mPa·s
333.15 K, 40020 kPa	3.332 mPa·s
333.15 K, 40070 kPa	3.33 mPa·s
333.15 K, 40080 kPa	3.335 mPa·s
333.15 K, 49990 kPa	3.644 mPa·s
333.15 K, 50000 kPa	3.638 mPa·s and 3.636 mPa·s and 3.632 mPa·s
333.15 K, 61450 kPa	4.065 mPa·s
333.15 K, 61480 kPa	4.064 mPa·s
333.15 K, 61600 kPa	4.055 mPa·s
333.15 K, 61660 kPa	4.057 mPa·s
333.16 K, 2490 kPa	2.298 mPa·s
333.16 K, 2580 kPa	2.299 mPa·s
333.16 K, 5220 kPa	2.361 mPa·s
333.16 K, 7780 kPa	2.422 mPa·s
343.14 K, 20120 kPa	2.335 mPa·s and 2.332 mPa·s
343.14 K, 39830 kPa	2.803 mPa·s
343.14 K, 39840 kPa	2.809 mPa·s
343.14 K, 39860 kPa	2.807 mPa·s
343.14 K, 39870 kPa	2.804 mPa·s
343.14 K, 39880 kPa	2.81 mPa·s
343.14 K, 65480 kPa	3.489 mPa·s
343.14 K, 65500 kPa	3.484 mPa·s
343.15 K, 1100 kPa	1.917 mPa·s and 1.916 mPa·s
343.15 K, 1170 kPa	1.915 mPa·s
343.15 K, 1240 kPa	1.914 mPa·s
343.15 K, 1260 kPa	1.918 mPa·s and 1.915 mPa·s
343.15 K, 2480 kPa	1.949 mPa·s
343.15 K, 2500 kPa	1.945 mPa·s and 1.947 mPa·s
343.15 K, 2520 kPa	1.948 mPa·s
343.15 K, 2530 kPa	1.95 mPa·s
343.15 K, 2580 kPa	1.946 mPa·s
343.15 K, 4960 kPa	1.993 mPa·s
343.15 K, 4970 kPa	1.994 mPa·s
343.15 K, 4980 kPa	1.992 mPa·s
343.15 K, 4990 kPa	1.989 mPa·s
343.15 K, 7500 kPa	2.054 mPa·s
343.15 K, 7510 kPa	2.057 mPa·s and 2.059 mPa·s
343.15 K, 7520 kPa	2.056 mPa·s
343.15 K, 10030 kPa	2.118 mPa·s
343.15 K, 10040 kPa	2.117 mPa·s and 2.119 mPa·s
343.15 K, 10090 kPa	2.117 mPa·s
343.15 K, 15220 kPa	2.224 mPa·s
343.15 K, 15240 kPa	2.222 mPa·s
343.15 K, 15260 kPa	2.221 mPa·s
343.15 K, 20040 kPa	2.334 mPa·s
343.15 K, 20160 kPa	2.337 mPa·s
343.15 K, 20210 kPa	2.335 mPa·s
343.15 K, 20240 kPa	2.332 mPa·s
